In patent publication US9290473B2, “Inhibitors of phosphatidylinositol-3-kinase (PI3) and inducers of nitric oxide (NO)” (COUCIL OF SCIENTIFIC & INDUSTRIAL RESEARCH, priority 2009, dated 2016):
Where two headings read alike, the source gives them in different places.

Tests used:
[1] = test system: Normal human peripheral blood mononuclear cells (PBMC); assay: Cell viability, trypan blue exclusion, normal PBMC; format: cell-based; conditions: 72 hours incubation
Source text: (§1) Following cancer cell lines were used: chronic myeloid leukemia cell lines K562, KU812; acute myeloid leukemia cell lines HL60, U937; T-lymphoblastic leukemia cell line Molt-4; prostate cancer cell line PC-3; breast cancer cell line MCF-7; pancreatic cancer cell line MIA PaCa-2. These cancer cell lines were maintained in tissue culture in standard growth medium containing 10% heat-inactivated fetal bovine serum (FBS). Normal human peripheral blood mononuclear cells (PBMC) were separated from whole blood by Ficoll/Hypaque density gradient centrifugation. Peripheral blood samples were collected from normal donors with due approval from the Human Ethics Committee of Indian Institute of Chemical Biology, Kolkata, India, and all experiments with human blood were conducted under an approved institutional Human Ethics committee protocol. Informed consent was provided according to the Declaration of Helsinki. Cancer cell lines and PBMC (5×10^3) in triplicate were incubated in 0.2 mL of standard growth medium containing 10% FBS with varying concentrations of test compounds of the present invention. After 72 hours of incubation, cells were collected by centrifugation (at 1000 g for 5 minutes) and cell-viability was determined by the trypan blue exclusion assay. At least 200 cells were examined in each sample. Because of monolayer culture, treated and untreated PC-3, MCF-7 and MIA PaCa-2 cells were detached from the wells by treatment with Cell Dissociation Solution (Sigma Chemical, St. Louis, Mo.) before counting. Data are represented as IC50 (minimum concentration required to inhibit the viability by 50%) in Table 5.

[2] = test system: chronic myeloid leukemia cell line K562; assay: Cell viability, trypan blue exclusion, K562; format: cell-based; conditions: Homo sapiens
Source text: as §1

[3] = test system: chronic myeloid leukemia cell line KU812; assay: Cell viability, trypan blue exclusion, KU812; format: cell-based; conditions: Homo sapiens, 72 hours incubation
Source text: as §1

[4] = test system: acute myeloid leukemia cell line HL60; assay: Cell viability, trypan blue exclusion, HL-60; format: cell-based; conditions: Homo sapiens
Source text: as §1

[5] = test system: acute myeloid leukemia cell line U937; assay: Cell viability, trypan blue exclusion, U937; format: cell-based; conditions: Homo sapiens, U-937, 72 hours incubation
Source text: as §1

[6] = test system: T-lymphoblastic leukemia cell line Molt-4; assay: Cell viability, trypan blue exclusion, Molt-4; format: cell-based, human; conditions: 72 hours incubation
Source text: as §1

[7] = test system: prostate cancer cell line PC-3; assay: Cell viability, trypan blue exclusion, PC-3; format: cell-based, human; conditions: 72 hours incubation
Source text: as §1

[8] = test system: pancreatic cancer cell line MIA PaCa-2; assay: Cell viability, trypan blue exclusion, MIA PaCa-2; format: cell-based, human; conditions: 72 hours incubation, read-out: Activity (IC50) MIAPaCa-2
Source text: as §1

[9] = Sensitivity to spontaneous autooxidation (H2O2 level, TMB reagent); format: physicochemical; conditions: 30 µM, 30 min and 2 hr in medium alone, with and without Catalase; H2O2 in supernatant
Protocol: Spontaneous autooxidation of compounds having phenolic groups produce reactive oxygen species like H2O2. The enzyme Catalase breaks down H2O2 to water, We therefore incubated Compound 1 and 7 (30 µM each) for 30 min and 2 hr in medium alone in the presence and absence of Catalase. Level of H2O2 in the supernatant was then measured as reported using 3,5,3′,5′-tetramethylbenzidine (TMB) reagent (Plant Physiology, 2004, 136, 3114-3123). FIG. 1 represents the data of sensitivity of spontaneous autooxidation of Compound 1 and Compound 7.

U937 cells = assay: Morphology and apoptosis/necrosis in U937 cells (Giemsa; annexin V-FITC/PI flow cytometry); format: cell-based, human; conditions: 24 hours
Protocol: U937 cells were treated with standard growth medium alone or with standard growth medium containing hydroxychavicol (30 μM) for 24 hours. Treated and untreated cells were stained with Giemsa and viewed under microscope (magnification ×1000). For measurement of apoptosis/necrosis, cells were left untreated or treated with Compound No. 1 (30 μM) or Compound No.7 (15 μM) for 24 hours. After washing, cells were stained with fluorescein isothiocyanate (FITC)-conjugated annexin V and propidium iodide (PI) and analysed in a flow cytometer (BD LSR, Becton Dickinson).
FIG. 2B indicates flow cytometric determination of apoptosis and necrosis by Compound No.1 (hydroxychavicol) and Compound No.7. Apoptosis and necrosis of U937 cells were induced. Cells were left untreated (extreme left panel), or incubated with Compound No.1 (30 μM) (middle panel) or Compound No.7 (extreme right panel) (15 μM) for 24 hours and processed for flow cytometry after staining with annexin V-FITC and propidium iodide (PI). Viable cells are in the lower left quadrant (stained neither by annexin V nor by PI), early apoptotic cells (stained by annexin V only) are in the lower right quadrant, late-stage apoptotic cells (stained by both annexin V and PI) are in the upper right quadrant and the necrotic cells (stained by PI only) are in the upper left quadrant.

PI3/Akt pathway = assay: Activation of PI3/Akt pathway in MIA PaCa 2 cells (Western blot of Akt phosphorylation); format: cell-based, human; conditions: 30 μM, 24 hr, reversed by cPTIO 25 μM
Protocol: MIA PaCa 2 cells were pretreated with NAC (5 mM), cPTIO (25 μM), PI3K inhibitor LY294002 (10 μM) for 3 hr followed by treatment with Compound 1 (30 μM) for 24 hr. Whole cell lysates were prepared and the phosphorylation status and protein expression of Akt were analyzed by Western blot. Cells were also treated with medium alone, Compound 1 (30 μM), c-PTIO (nitric oxide scavenger; 25 μM) or compound 1 plus c-PTIO for 24 hr.

[10] = test system: endothelial nitric oxide synthase (eNOS); assay: NOS isoform siRNA transfection of MIA PaCa 2 cells, apoptosis and eNOS expression; format: cell-based, human; conditions: siRNA 48 hr, then 30 μM for 24 hr
Protocol: MIA PaCa 2 cells were transfected with control siRNA, nNOS siRNA, iNOS siRNA or eNOS siRNA (purchased from Santa Cruz Biotechnology) for 48 hr. Transfections were carried out following the manufacturer's instructions. The transfection reagent used for siRNA transfection was purchased from Santa Cruz. Cells were then treated with vehicle control or Compound 1 (30 μM) for 24 hr. Apoptosis was analyzed by flow cytometry. To confirm that transfectin with siRNAs attenuate the protein expression of respective NOS isoforms, Western blot was performed with whole cell lysates.

MCF-7 xenografts = assay: Human breast adenocarcinoma (MCF-7) xenograft in nude mice; format: in vivo; conditions: 100 mg/kg body weight oral twice a day for 10 days
Protocol: MCF-7 cells were suspended to 5×10^7 cells/ml in Matrigel (BD Biosciences; 1 volume of cells with 1 volume of cold Matrigel). Nude female mice of 6 to 7 weeks of age (National Institute of Nutrition, Hyderabad, India) were injected with 0.2 ml of this cell suspension. Animals were left untreated until MCF-7 xenografts reached 200-300 mm^3.
Compound 1 (100 mg/kg body weight) or vehicle control were administered via oral route twice a day for 10 days (5 mice per group).

C=CCc1ccc(O)c(O)c1 [Compound 1, 4-allyl-benzene-1,2-diol]
IC50 [1]: 80 µM | IC50 ([2]; K562, 72 hours incubation, trypan blue exclusion, read-out: Activity (IC50) K562): 20 µM | IC50 ([2]; read-out: IC50 against chronic myeloid leukemia cancer cell lines (K562), range over both cell lines K562, KU812 and KU812 and over the listed compounds, read-out: IC50 against chronic myeloid leukemia cancer cell lines (K562, KU812)): 13 to 52 µM | IC50 [3]: 25 µM | IC50 ([4]; 72 hours incubation, trypan blue exclusion, read-out: Activity (IC50) HL-60): 25 µM | IC50 ([4]; range over both cell lines HL60 and U937 and over the listed compounds, read-out: IC50 against acute myeloid leukemia cancer cell line (HL60, U937)): 13 to 60 µM | IC50 [5]: 25 µM | IC50 [6]: 30 µM | IC50 ([6]; Homo sapiens, MOLT-4, 72 h): 15 to 50 µM | IC50 [7]: 35 µM | IC50 ([7]; Homo sapiens, 72 h): 25 to 70 µM | IC50 [8]: 35 µM | IC50 ([8]; Homo sapiens, MIA PaCa-2, 72 h): 30 to 70 µM | Sensitivity to spontaneous autooxidation [9]: undergoes spontaneous autooxidation | Morphology of U937 cells (mode of killing) (U937 cells; 30 μM, Giemsa staining, microscopy): due to both apoptosis and necrosis | Apoptosis and necrosis of U937 cells by flow cytometry (U937 cells; Compound No.1 30 μM, Compound No.7 15 μM, annexin V-FITC/PI): induce apoptosis and necrosis | Effect on activation of PI3/Akt pathway (PI3/Akt pathway): inhibitis the activation of PI3/Akt pathway | NOS isoform involved in induced nitric oxide production and cell death [10]: Endothelial nitric oxide synthase (eNOS) is responsible | In vivo efficacy in MCF-7 xenografts (MCF-7 xenografts): further confirmed
